The source of these data is patent publication US20130225548A1, “Pyridine Derivative and Medicinal Agent” (NIPPON SHINYAKU CO., LTD., priority 2010, published 2013).

Counter-ions that a name gives are not always drawn.

This assay concerns the target T1, Syk tyrosine kinase (Homo sapiens, UniProt P43405).
T1 construct: purchased Carna Biosciences, Inc
Description: Test for Syk tyrosine kinase inhibitory activity (ELISA). The class given is biochemical. The settings on record: Syk tyrosine kinase (Carna Biosciences), 25 μM ATP in substrate solution, 30° C. 1 hour, n=2; read-out: Evaluation (IC50, concentration inhibiting the tyrosine kinase activity at 50%). In outline:
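Syk kinase (0.025 nM stock before addition) with 625 nM biotinylated peptide and 25 μM ATP (substrate-solution levels) in Tris pH 7.5, MgCl2, DTT; 1 h at 30 °C on streptavidin plates. Phosphotyrosine detected by HRP anti-pTyr antibody, TMB, A450; IC50 by non-linear regression.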
For orientation: An ELISA detects its analyte on a solid surface through an enzyme-linked reagent.

For `N#Cc1ccnc(Nc2cc(C3CC3)cc(-c3cncc(N4CCCNCC4)c3)n2)c1` [Example 98, 2-{[4-cyclopropyl-5′-(1,4-diazepan-1-yl)-2,3′-bipyridin-6-yl]amino}pyridine-4-carbonitrile hydrochloride], the IC50 was < 5 nM. The value for `CN1CCC(Oc2cncc(-c3cc(C4CC4)cc(Nc4cc(C#N)ccn4)n3)c2)CC1` [Example 99, 2-({4-cyclopropyl-5′-[(1-methylpiperidin-4-yl)oxy]-2,3′-bipyridin-6-yl}amino)pyridine-4-carbonitrile hydrochloride] was < 5 nM; that for `N#Cc1ccnc(Nc2cc(C3CC3)cc(-c3cncc(OCCN4CCNCC4)c3)n2)c1` [Example 100, 2-({4-cyclopropyl-5′-[2-(piperazin-1-yl)ethoxy]-2,3′-bipyridin-6-yl}amino)pyridine-4-carbonitrile hydrochloride] was 5 to 50 nM. With `N#Cc1ccnc(Nc2cc(C3CC3)cc(-c3cncc(OCCN4CCOCC4)c3)n2)c1` [Example 101, 2-({4-cyclopropyl-5′-[2-(morpholin-4-yl)ethoxy]-2,3′-bipyridin-6-yl}amino)pyridine-4-carbonitrile hydrochloride], the IC50 lay in the range of 50 to 500 nM. Regarding `N#Cc1ccnc(Nc2cc(C3CC3)cc(-c3cncc(OC4CNC4)c3)n2)c1` [Example 102, 2-{[5′-(azetidin-3-yloxy)-4-cyclopropyl-2,3′-bipyridin-6-yl]amino}pyridine-4-carbonitrile hydrochloride], the IC50 is 5 to 50 nM.

Take `N#Cc1ccnc(Nc2cc(C3CC3)cc(-c3cncc(OC4CCN(CC(N)=O)CC4)c3)n2)c1` [Example 103, 2-[4-({6-[(4-cyanopyridin-2-yl)amino]-4-cyclopropyl-2,3′-bipyridin-5′-yl}oxy)-piperidin-1-yl]acetamide hydrochloride]: the IC50 lay in the range of 5 to 50 nM. In the case of `N#Cc1ccnc(Nc2cc(C3CC3)cc(-c3cncc(OC4CCN(C(N)=O)CC4)c3)n2)c1` [Example 104, 4-({6-[(4-cyanopyridin-2-yl)amino]-4-cyclopropyl-2,3′-pypyridin-5′-yl}oxy)piperidine-1-carboxamide hydrochloride], the IC50 was 5 to 50 nM.

On to `N#Cc1ccnc(Nc2cc(C3CC3)cc(-c3cnc(N4CCS(=O)(=O)CC4)nc3)n2)c1` [Example 105, 2-({4-cyclopropyl-6-[2-(1,1-dioxidethiomorpholin-4-yl)pyrimidin-5-yl]pyridin-2-yl}amino)pyridine-4-carbonitrile hydrochloride], for which the IC50 is 50 to 500 nM.

On to `N#Cc1ccnc(Nc2cc(C3CC3)cc(-c3cnc(N4CCCN(C(N)=O)CC4)nc3)n2)c1` [Example 106, 4-(5-{6-[(4-cyanopyridin-2-yl)amino]-4-cyclopropylpyridin-2-yl}pyrimidin-2-yl)-1,4-diazepane-1-carboxamide hydrochloride], for which the IC50 lay in the range of 5 to 50 nM.

`CN(C)CCOc1cncc(-c2cc(C3CC3)cc(Nc3cc(C#N)ccn3)n2)c1` [Example 107, 2-({4-cyclopropyl-5′-[2-(dimethylamino)ethoxy]-2,3′-bipyridin-6-yl}amino)pyridine-4-carbonitrile hydrochloride]: the IC50 lay in the range of 5 to 50 nM. As for `CN(C)C(C)(C)COc1cncc(-c2cc(C3CC3)cc(Nc3cc(C#N)ccn3)n2)c1` [Example 108, 2-({4-cyclopropyl-5′-[2-(dimethylamino)-2-methylpropoxy]-2,3′-bipyridin-6-yl}amine)pyridine-4-carbonitrile hydrochloride], the IC50 was in the range of 50 to 500 nM. For the molecule `N#Cc1ccnc(Nc2cc(C3CC3)cc(-c3cncc(OCC(N)=O)c3)n2)c1` [Example 109, 2-({6-[(4-cyanopyridin-2-yl)amino]-4-cyclopropyl-2,3′-bipyridin-5′-yl}oxy)acetamide hydrochloride], the IC50 was in the range of 5 to 50 nM.

As to `CC(=O)N1CCCN(c2cncc(-c3cc(C4CC4)cc(Nc4cc(C#N)ccn4)n3)c2)CC1` [Example 110, 2-{[5′-(4-acetyl-1,4-diazepan-1-yl)-4-cyclopropyl-2,3′-bipyridin-6-yl]amino}pyridine-4-carbonitrile hydrochloride], the IC50 lay in the range of 50 to 500 nM.
